US9034877B2 (Wayne State University, priority 2009, dated 2015)
Counter-ions that a name gives are not always drawn.

Experiments:
D3 receptor = biological target: T1, D3 receptor (Rattus norvegicus, UniProt P19020); assay: Inhibition of [3H]spiperone binding to cloned D3 receptors expressed in HEK-293 cells; settings: for Ki: [3H]spiperone, rat D3 in HEK-293 cells
T1 construct: expressed in transfected cells

hD3 receptor = biological target: T2, hD3 receptor (Homo sapiens, UniProt P35462); assay: Stimulation of [35S]GTPγS binding, hD3 receptor expressed in CHO cells; assay type: biochemical
T2 construct: expressed in transfected cells; host or cells: CHO
T2 sequence (P35462 whole entry): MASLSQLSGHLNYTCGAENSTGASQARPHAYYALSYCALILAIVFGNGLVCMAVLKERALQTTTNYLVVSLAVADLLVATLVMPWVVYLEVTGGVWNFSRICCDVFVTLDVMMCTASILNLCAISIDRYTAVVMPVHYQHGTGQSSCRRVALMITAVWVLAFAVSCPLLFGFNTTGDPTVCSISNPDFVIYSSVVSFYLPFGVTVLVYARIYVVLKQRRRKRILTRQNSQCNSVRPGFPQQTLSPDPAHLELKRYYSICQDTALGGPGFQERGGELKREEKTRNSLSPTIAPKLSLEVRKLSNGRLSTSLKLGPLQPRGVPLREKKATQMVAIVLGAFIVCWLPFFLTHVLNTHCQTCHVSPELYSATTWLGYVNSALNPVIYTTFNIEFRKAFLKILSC

D2L receptor = biological target: T3, D2L receptor (Rattus norvegicus, UniProt P61169); assay: Inhibition of [3H]spiperone binding to cloned D2L receptors expressed in HEK-293 cells; settings: rat D2L in HEK-293 cells, read-out: Ki, D2 receptor
T3 construct: expressed in transfected cells
T3 sequence (P61169 whole entry): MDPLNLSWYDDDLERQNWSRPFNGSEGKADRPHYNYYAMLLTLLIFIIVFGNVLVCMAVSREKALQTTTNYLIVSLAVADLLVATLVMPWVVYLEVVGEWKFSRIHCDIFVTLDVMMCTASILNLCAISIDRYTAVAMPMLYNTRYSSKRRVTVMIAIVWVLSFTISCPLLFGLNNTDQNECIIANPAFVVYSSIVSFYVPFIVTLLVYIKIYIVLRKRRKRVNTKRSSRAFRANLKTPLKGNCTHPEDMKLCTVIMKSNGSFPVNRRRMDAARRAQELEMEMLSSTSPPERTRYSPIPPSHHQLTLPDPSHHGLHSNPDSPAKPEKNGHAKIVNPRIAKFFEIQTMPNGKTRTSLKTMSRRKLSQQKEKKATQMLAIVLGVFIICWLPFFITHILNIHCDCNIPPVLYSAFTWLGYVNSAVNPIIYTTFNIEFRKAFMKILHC

6-OHDA lesioned rats = assay: Rotational experiment with 6-OHDA unilaterally lesioned rats; assay type: in vivo, rat; settings: 0.05 mg/kg, 21 days post lesion, recorded for 30 min

T1 sequence (P19020 whole entry): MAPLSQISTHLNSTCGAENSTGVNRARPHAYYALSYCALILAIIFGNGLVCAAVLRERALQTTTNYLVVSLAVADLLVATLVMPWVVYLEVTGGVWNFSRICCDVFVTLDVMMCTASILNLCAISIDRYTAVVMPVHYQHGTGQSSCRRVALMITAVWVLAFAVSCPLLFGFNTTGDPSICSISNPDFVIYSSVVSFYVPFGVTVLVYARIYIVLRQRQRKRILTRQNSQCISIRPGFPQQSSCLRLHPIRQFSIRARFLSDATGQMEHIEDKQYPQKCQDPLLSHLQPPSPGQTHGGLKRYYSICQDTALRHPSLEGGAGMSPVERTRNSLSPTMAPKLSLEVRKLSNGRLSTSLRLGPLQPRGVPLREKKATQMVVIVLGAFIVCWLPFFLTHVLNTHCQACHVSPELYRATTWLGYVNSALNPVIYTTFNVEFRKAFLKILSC

| SMILES | melting point [°C] | Ki (D3 receptor) [nM] | Ki (D2L receptor) [nM] | further results |
| --- | --- | --- | --- | --- |
| CCCN(CCN1CCN(C(=O)c2cc3ccccc3[nH]2)CC1)C1CCc2ccc(O)cc2C1 (stereo not drawn) (as salt: HCl) [Compound 40c, (4-{2-[(7-Hydroxy-1,2,3,4-tetrahydro-naphthalen-2-yl)-propyl-amino]-ethyl}-piperazin-1-yl)-(1H-indol-2-yl)-methanone] | 203 to 205 |  |  |  |
| CCCN(CCN1CCN(C(=O)c2c[nH]c3ccccc23)CC1)C1CCc2c(O)cccc2C1 (stereo not drawn) (as salt: HCl) [Compound 40f, (4-{2-[(5-Hydroxy-1,2,3,4-tetrahydro-naphthalen-2-yl)-propyl-amino]-ethyl}-piperazin-1-yl)-(1H-indol-3-yl)-methanone] | 147 to 151 |  |  |  |
| CCCN(CCN1CCN(Cc2ccc(O)c3ncccc23)CC1)C1CCc2c(O)cccc2C1 (stereo not drawn) (as salt: hydrochloride) [Compound 12b, 5-((4-(2-((5-hydroxy-1,2,3,4-tetrahydronaphthalen-2-yl)(propyl)amino)ethyl)piperazin-1-yl)methyl)quinolin-8-ol] | 252 to 255 |  |  |  |
| CCCN(CCN1CCN(Cc2ccc3[nH]ccc3c2)CC1)C1CCc2ccc(O)cc2C1 (stereo not drawn) (as salt: oxalate) [Compound 40b, 7-({2-[4-(1H-Indol-5-ylmethyl)-piperazin-1-yl]-ethyl}-propyl-amino)-5,6,7,8-tetrahydro-naphthalen-2-ol] | 198 to 203 |  |  |  |
| CCCN(CCN1CCN(Cc2cc3ccccc3[nH]2)CC1)C1CCc2ccc(O)cc2C1 (stereo not drawn) (as salt: oxalate) [Compound 40d, 7-({2-[4-(1H-Indol-2-ylmethyl)-piperazin-1-yl]-ethyl}-propyl-amino)-5,6,7,8-tetrahydro-naphthalen-2-ol] | 135 to 137 |  |  |  |
| CCCN(CCN1CCN(C(=O)c2cc3ccccc3[nH]2)CC1)C1CCc2c(O)cccc2C1 (racemic) [Compound 40e, (4-{2-[(5-Hydroxy-1,2,3,4-tetrahydro-naphthalen-2-yl)-propyl-amino]-ethyl}-piperazin-1-yl)-(1H-indol-2-yl)-methanone] |  | 0.55 |  |  |
| CCCN(CCN1CCN(c2ccnc3c(O)cccc23)CC1)C1CCc2c(O)cccc2C1 (single isomer, unassigned; (+)) (as salt: hydrochloride) [(+)19b, (+)-4-(4-(2-((5-hydroxy-1,2,3,4-tetrahydronaphthalen-2-yl) (propyl)amino)ethyl)piperazin-1-yl)quinolin-8-ol] | 230 to 232 |  |  |  |
| CCCN(CCN1CCN(c2ccnc3c(O)cccc23)CC1)C1CCc2ccc(O)cc2C1 (single isomer, unassigned; (+)) [(+)19a, (+)-4-(4-(2-((7-hydroxy-1,2,3,4-tetrahydronaphthalen-2-yl) (propyl)amino)ethyl)piperazin-1-yl)quinolin-8-ol] |  |  |  | Agonism at D3 compared with dopamine (hD3 receptor): full or near-complete agonism |
| CCCN(CCN1CCN(Cc2ccc(O)c3ncccc23)CC1)C1CCc2ccc(O)cc2C1 (stereo not drawn) [Compound 12a, 5-((4-(2-((7-hydroxy-1,2,3,4-tetrahydronaphthalen-2-yl)(propyl)amino)ethyl)piperazin-1-yl)methyl) quinolin-8-ol] |  | 5.57 | 86 |  |
| CCCN(CCN1CCN(Cc2ccc(O)c3ncccc23)CC1)C1CCc2c(O)cccc2C1 (stereo not drawn) [Compound 12b, 5-((4-(2-((5-hydroxy-1,2,3,4-tetrahydronaphthalen-2-yl)(propyl)amino)ethyl)piperazin-1-yl)methyl)quinolin-8-ol] |  | 3.71 |  |  |
| CCCN(CCN1CCN(c2ccnc3c(O)cccc23)CC1)C1CCc2c(O)cccc2C1 (stereo not drawn) [Compound 19b] |  | 1.35 |  |  |
| CCCN(CCN1CCN(Cc2ccc3[nH]ccc3c2)CC1)C1CCc2ccc(O)cc2C1 (stereo not drawn) [Compound 40b, 7-({2-[4-(1H-Indol-5-ylmethyl)-piperazin-1-yl]-ethyl}-propyl-amino)-5,6,7,8-tetrahydro-naphthalen-2-ol] |  | 3.87 | 144 |  |
| CCCN(CCN1CCN(C(=O)c2cc3ccccc3[nH]2)CC1)C1CCc2ccc(O)cc2C1 (stereo not drawn) [Compound 40c, (4-{2-[(7-Hydroxy-1,2,3,4-tetrahydro-naphthalen-2-yl)-propyl-amino]-ethyl}-piperazin-1-yl)-(1H-indol-2-yl)-methanone] |  | 3.72 | 116 | D2/D3 (Ki ratio, binding selectivity) (D3 receptor; Ki D2 / Ki D3): 31 |
| CCCN(CCN1CCN(C(=O)c2c[nH]c3ccccc23)CC1)C1CCc2c(O)cccc2C1 (stereo not drawn) [Compound 40f, (4-{2-[(5-Hydroxy-1,2,3,4-tetrahydro-naphthalen-2-yl)-propyl-amino]-ethyl}-piperazin-1-yl)-(1H-indol-3-yl)-methanone] |  | 3.62 | 58.9 |  |
| CN1CCc2cccc3c2[C@H]1Cc1ccc(O)c(O)c1-3 [apomorphine] |  |  |  | Average contralateral rotation (6-OHDA lesioned rats): > 250 |

Further lines, with some results ahead:

| melting point [°C] | Ki (D3 receptor) [nM] | Ki (D2L receptor) [nM] | SMILES | further results |
| --- | --- | --- | --- | --- |
| 167 to 170 |  |  | CCCN(CCN1CCN(C(=O)c2n[nH]c3ccccc23)CC1)C1CCc2c(O)cccc2C1 (stereo not drawn) (as salt: HCl) [Compound 40g, (4-{2-[(5-Hydroxy-1,2,3,4-tetrahydro-naphthalen-2-yl)-propyl-amino]-ethyl}-piperazin-1-yl)-(1H-indazol-3-yl)-methanone] |  |
| 131 to 134 |  |  | CCCN(CCN1CCN(C(=O)c2cc3ccccc3s2)CC1)C1CCc2c(O)cccc2C1 (stereo not drawn) (as salt: HCl) [Compound 40i, Benzo[b]thiophen-2-yl-(4-{2-[(5-hydroxy-1,2,3,4-tetrahydro-naphthalen-2-yl)-propyl-amino]-ethyl}-piperazin-1-yl)-methanone] |  |
| 142 to 146 |  |  | CCCN(CCN1CCN(C(=O)c2cnc3ccccc3c2)CC1)C1CCc2c(O)cccc2C1 (stereo not drawn) (as salt: HCl) [Compound 40j, (4-{2-[(5-Hydroxy-1,2,3,4-tetrahydro-naphthalen-2-yl)-propyl-amino]-ethyl}-piperazin-1-yl)-quinolin-3-yl-methanone] |  |
| 179 to 183 |  |  | CCCN(CCN1CCN(c2ccc3[nH]ccc3c2)CC1)C1CCc2ccc(O)cc2C1 (stereo not drawn) (as salt: oxalate) [Compound 52, 7-((2-(4-(1H-indol-5-yl)piperazin-1-yl)ethyl)(propyl)amino)-5,6,7,8-tetrahydro-naphthalen-2-ol] |  |
| 169 to 170 |  |  | CCCN(CCN1CCN(C(=O)c2cc3ccccc3[nH]2)CC1)C1CCc2c(O)cccc2C1 (single isomer, unassigned; (+)) (as salt: HCl) [Compound (+)-40e, (+)-(4-{2-[(5-Hydroxy-1,2,3,4-tetrahydro-naphthalen-2-yl)-propyl-amino]-ethyl}-piperazin-1-yl)-(1H-indol-2-yl)-methanone] |  |
| 168 to 169 |  |  | CCCN(CCN1CCN(C(=O)c2cc3ccccc3[nH]2)CC1)C1CCc2c(O)cccc2C1 (single isomer, unassigned; (-)) (as salt: HCl) [Compound (−)-40e, (−)-(4-{2-[(5-Hydroxy-1,2,3,4-tetrahydro-naphthalen-2-yl)-propyl-amino]-ethyl}-piperazin-1-yl)-(1H-indol-2-yl)-methanone] |  |
| 237 to 240 |  |  | CCCN(CCN1CCN(c2ccnc3c(O)cccc23)CC1)C1CCc2c(O)cccc2C1 (single isomer, unassigned; (-)) (as salt: hydrochloride) [Compound (−)19b, (−)-4-(4-(2-((5-hydroxy-1,2,3,4-tetrahydronaphthalen-2-yl) (propyl)amino)ethyl)piperazin-1-yl)quinolin-8-ol] |  |
|  | 2.83 | 28 | CCCN(CCN1CCN(C(=O)c2n[nH]c3ccccc23)CC1)C1CCc2c(O)cccc2C1 (stereo not drawn) [Compound 40g, (4-{2-[(5-Hydroxy-1,2,3,4-tetrahydro-naphthalen-2-yl)-propyl-amino]-ethyl}-piperazin-1-yl)-(1H-indazol-3-yl)-methanone] |  |
|  | 1.69 | 76.9 | CCCN(CCN1CCN(C(=O)c2cc3ccccc3s2)CC1)C1CCc2c(O)cccc2C1 (stereo not drawn) [Compound 40i, Benzo[b]thiophen-2-yl-(4-{2-[(5-hydroxy-1,2,3,4-tetrahydro-naphthalen-2-yl)-propyl-amino]-ethyl}-piperazin-1-yl)-methanone] |  |
|  |  | 158 | CCCN(CCN1CCN(C(=O)c2cnc3ccccc3c2)CC1)C1CCc2c(O)cccc2C1 (stereo not drawn) [Compound 40j, (4-{2-[(5-Hydroxy-1,2,3,4-tetrahydro-naphthalen-2-yl)-propyl-amino]-ethyl}-piperazin-1-yl)-quinolin-3-yl-methanone] |  |
|  | 2 | 30 | CCCN(CCN1CCN(c2ccc3[nH]ccc3c2)CC1)C1CCc2ccc(O)cc2C1 (stereo not drawn) [Compound 52, 7-((2-(4-(1H-indol-5-yl)piperazin-1-yl)ethyl)(propyl)amino)-5,6,7,8-tetrahydro-naphthalen-2-ol] |  |
|  | 2.27 | 157 | CCCN(CCN1CCN(C(=O)c2ccc3[nH]ccc3c2)CC1)[C@H]1CCc2c(O)cccc2C1 [Compound (−)-45, (S)-(4-{2-[(5-Hydroxy-1,2,3,4-tetrahydro-naphthalen-2-yl)-propyl-amino]-ethyl}-piperazin-1-yl)-(1H-indol-5-yl)-methanone] |  |
